Reference: patent US20140163050A1, “Use of 1H-quinazoline-2,4-diones” (priority 2011, published 2014)
In brackets after ≈: the same amount, converted by molar mass. Several values for one entry are separate records, joined by “and”; a condition that tells them apart may be missing. Equal values may be shown once. Entries after “also recorded” stand apart in the source; their conditions may differ. Read-outs that look alike come from different tables or passages of the source.

Experiments:
[1] = C-7 plasma pharmacokinetics after single oral administration; type: in vivo, human
Method: The C-7 PK parameters were determined in plasma using non-compartmental methods using WinNonlin Pro (Version 5.2), as detailed in Table 3.
Biofluid concentrations were expressed in mass per volume units (ng/mL). All C-7 and AEDs concentrations below LLOQ were reported as zero in the concentration data listings. Concentrations below LLOQ were treated as zero in summary statistics of concentration data as well as for calculation of C-7 PK parameters. A geometric mean was not reported whenever at least one concentration was below the LLOQ (i.e. zero). Missing data were labeled as such and no imputation methods were used.
Terminal elimination rate constant (lambda_z) was calculated as the slope of the linear regression of the terminal phase of the logarithmic concentration-time profile for each individual dataset available. A minimum of three time points was used for determining lambda_z. Regression was performed without weighting, and a minimum value of 0.75 for Rsq_adjusted was necessary for acceptance.
The different areas under the concentration-time curve were calculated using the linear trapezoidal summation (both ascending and descending phase).
Descriptive statistics of pharmacokinetic parameters included mean, SD, and CV, minimum and maximum. The geometric mean was identified when presented. A range of values were presented for selected variables. Since Tmax is generally evaluated by a nonparametric method, median values and ranges were provided.
The patients received the study medication in the morning between 8:00 h and 9:00 h, at least 30 minutes after a light breakfast had been completed.

patients with PSE = assay: PK-PD relationship, Emax model for SPR; type: in vivo, human; conditions: for EC50: Homo sapiens, read-out: mean (SD) EC50; for EC50 / mean (SD) Emax on the logit scale: mean across the 13 patients; for EC50 (C-7 concentration at 50% of the maximum reduction in SPR) / Emax (maximum reduction in SPR on the logit scale): estimate for each patient (15, 50 or 100 mg)
Method: The mean SPR per eye condition and plasma PK concentrations of C-7 50, 100, and 15 mg dose groups is shown in FIG. 3, FIG. 4 and FIG. 5, respectively.
A PK-PD model was developed sequentially for the SPR data. Firstly a pharmacokinetic model was fitted using nonlinear mixed effects methodology in NONMEM version VI to describe the 13 patients with both PK and PD data. A 3 compartment disposition model with first order absorption and absorption lag time was selected to describe the pharmacokinetic time profile for each patient. The between patient variability was described by exponential random effects on each pharmacokinetic parameter, with all parameters assumed to be independent between individuals. The residual error model combined the additive and proportional error terms. The estimated pharmacokinetic parameters for each patient were used to generate each patient's PK profile as an input to the pharmacodynamic model.
For the Pharmacodynamic response, SPR, an Emax model was fitted on the logit transformed scale:
where Base is the baseline SPR on the logit scale, Emax is the maximum reduction in SPR on the logit scale, EC50 is the concentration at which the 50% of the maximum reduction is obtained and C is C-7 concentration. For each patient, the PD parameters for the three eye conditions, eyes closure, eyes closed and eyes open, were estimated separately but with a common additive residual variance on the logit scale. The PD parameter estimates were highly variable across the 13 patients, with the estimation having trouble identifying Emax and EC50 (see Table 6 below).

mouse = assay: Oral bioavailability: in vivo orally active (audiogenic mouse test and/or MES test)
Method: The oral bioavailability was tested using the audiogenic mouse test (Audiogenic seizures, R. L. Collins; Chapter 14, pages: 347-372. In: Experimental Models of Epilepsy; By: Pupura, Penry, Tower, Woodbury, Walter, Raven Press, New York, 1972. Standard Book Number: 0-911216-26-X) and/or the MES test.

[2] = PK of concomitant AEDs on co-administration of C-7; type: in vivo, human; conditions: C-7 on Day 2; AED PK profiles Day 1 vs Days 2 and 3
Method: Similar AEDs concentration-time profiles were observed on Days 1, 2 and 3 for each patient. Two of the patients in Cohort I were also enrolled in Cohort II. Their lamotrigine PK profiles were similar in the 2 treatment periods. These observations confirm stable pre-existing treatment for all the patients.
AED concentrations were listed and summarized; analysis of level of exposure of AED(s) taken by the patient was performed on an ad-hoc basis as it depended on specifics of the AED.

[3] = Cohort I, C-7 50 mg, individual patients
[4] = Cohort II, C-7 100 mg, individual patients
[5] = Cohort III, C-7 15 mg, individual patients
[6] = patients with PSE (after light breakfast) vs healthy volunteer study (fasted)

Question: What does the source list for `CC(C)c1cc2[nH]c(=O)n(NS(C)(=O)=O)c(=O)c2cc1-c1ccnn1C` [Compound C-7, N-[7-Isopropyl-6-(2-methyl-2H-pyrazol-3-yl)-2,4-dioxo-1,4-dihydro-2H-quinazolin-3-yl]-methanesulfonamide]?
Answer: AUC0-24 h [1, 3]: 9838 ng·h/mL and 12564 ng·h/mL and 14162 ng·h/mL and 7043 ng·h/mL; Cmax [1, 3]: 1910 ng/mL and 2140 ng/mL and 2800 ng/mL and 1410 ng/mL; Tmax [1, 3]: 2.00 h and 2.92 h and 3.98 h and 3.87 h; AUC0-24 h [1, 4]: 17924 ng·h/mL and 13877 ng·h/mL; Cmax [1, 4]: 3470 ng/mL and 2950 ng/mL; Tmax [1, 4]: 2.88 h and 2.00 h; AUC0-24 h [1, 5]: 2906 ng·h/mL and 3878 ng·h/mL; Cmax [1, 5]: 634 ng/mL and 701 ng/mL; Tmax [1, 5]: 4.00 h and 1.97 h; AUC(0-t) ([1]; human, plasma, oral, 15 mg, Cohort III, C-7 15 mg, individual patients, read-out: AUC0-24 h): 4270 ng·h/mL; Cmax ([1]; human, plasma, oral, 15 mg, Cohort III, C-7 15 mg, individual patients, read-out: Cmax): 581 ng/mL; Cmax ([1]; human, plasma, oral, 50 mg, Cohort I, C-7 50 mg, individual patients, read-out: Cmax): 1530 ng/mL; Tmax ([1]; human, plasma, oral, 50 mg, Cohort I, C-7 50 mg, individual patients, read-out: Tmax): 3 h; AUC(0-t) ([1]; human, plasma, oral, 100 mg, Cohort II, C-7 100 mg, individual patients, read-out: AUC0-24 h): 21300 ng·h/mL; Cmax ([1]; human, plasma, oral, 100 mg, Cohort II, C-7 100 mg, individual patients, read-out: Cmax): 3700 ng/mL; Tmax ([1]; human, plasma, oral, 100 mg, Cohort II, C-7 100 mg, individual patients, read-out: Tmax): 3 h; AUC(0-t) ([1]; human, plasma, po, 15 mg, plasma, single oral 15 mg, Cohort III, n = 3, geometric mean [% CV geo mean], read-out: AUC0-6 hr): 2130 ng·h/mL; AUC(0-t) ([1]; human, plasma, po, 15 mg, plasma, single oral 15 mg, Cohort III, n = 3, geometric mean [% CV geo mean], read-out: AUC0-24 hr): 3640 ng·h/mL; AUC(0-t) ([1]; human, plasma, po, 15 mg, plasma, single oral 15 mg, Cohort III, n = 3, geometric mean [% CV geo mean], read-out: AUClast): 3660 ng·h/mL; Cmax ([1]; human, plasma, po, 15 mg, plasma, single oral 15 mg, Cohort III, n = 3, geometric mean [% CV geo mean], read-out: Cmax): 637 ng/mL; Tmax ([1]; human, plasma, po, 15 mg, plasma, single oral 15 mg, Cohort III, n = 3, median (min-max), read-out: Tmax): 2.98 h; AUC(0-t) ([1]; human, plasma, po, 50 mg, plasma, single oral 50 mg, Cohort I, n = 6, geometric mean [% CV geo mean], read-out: AUC0-6 hr): 6790 ng·h/mL; AUC(0-t) ([1]; human, plasma, po, 50 mg, plasma, single oral 50 mg, Cohort I, n = 6, geometric mean [% CV geo mean], read-out: AUC0-24 hr): 10600 ng·h/mL; AUC(0-t) ([1]; human, plasma, po, 50 mg, plasma, single oral 50 mg, Cohort I, n = 6, geometric mean [% CV geo mean], read-out: AUClast): 10700 ng·h/mL; Cmax ([1]; human, plasma, po, 50 mg, plasma, single oral 50 mg, Cohort I, n = 6, geometric mean [% CV geo mean], read-out: Cmax): 1990 ng/mL; Tmax ([1]; human, plasma, po, 50 mg, plasma, single oral 50 mg, Cohort I, n = 6, median (min-max), read-out: Tmax): 2.96 h; AUC(0-t) ([1]; human, plasma, po, 100 mg, plasma, single oral 100 mg, Cohort II, n = 4, geometric mean [% CV geo mean], read-out: AUC0-6 hr): 10200 ng·h/mL; AUC(0-t) ([1]; human, plasma, po, 100 mg, plasma, single oral 100 mg, Cohort II, n = 4, geometric mean [% CV geo mean], read-out: AUC0-24 hr): 16900 ng·h/mL; AUC(0-t) ([1]; human, plasma, po, 100 mg, plasma, single oral 100 mg, Cohort II, n = 4, geometric mean [% CV geo mean], read-out: AUClast): 17000 ng·h/mL; Cmax ([1]; human, plasma, po, 100 mg, plasma, single oral 100 mg, Cohort II, n = 4, geometric mean [% CV geo mean], read-out: Cmax): 2980 ng/mL; Tmax ([1]; human, plasma, po, 100 mg, plasma, single oral 100 mg, Cohort II, n = 4, median (min-max), read-out: Tmax): 2.94 h; mean AUClast in patients higher than in healthy male subjects [1, 6]: 10-40%; mean Cmax in patients higher than in healthy male subjects [1, 6]: 10-20%; Tlag ([1]; plasma, single oral 15 mg, Cohort III, n = 3, median (min-max)): 0.00 (0.00-0.00) hr; Tlag ([1]; plasma, single oral 50 mg, Cohort I, n = 6, median (min-max)): 0.00 (0.00-0.00) hr; Tlag ([1]; plasma, single oral 100 mg, Cohort II, n = 4, median (min-max)): 0.00 (0.00-0.00) hr; earliest time C-7 measurable in plasma ([1]; single 15, 50 or 100 mg dose): 0.25 h post-dose; time of peak plasma concentration (median) ([1]; single 15, 50 or 100 mg dose): around 3 h post-dose; time of peak plasma concentration, maximum in individual patients ([1]; single 15, 50 or 100 mg dose): 4 h; time of peak plasma concentration, minimum in individual patients ([1]; single 15, 50 or 100 mg dose): approximately 2 h; EC50 (patients with PSE; eyes closed): 3.75 µg/mL (≈ 9.93 µM); EC50 (patients with PSE; eyes closures): 2.25 µg/mL (≈ 5.97 µM); EC50 (patients with PSE; eyes open): 2.96 µg/mL (≈ 7.85 µM); EC50 (C-7 concentration at 50% of the maximum reduction in SPR) (patients with PSE; eyes closed): 219 ng/mL and 5 ng/mL and 1170 ng/mL and 310 ng/mL and 2040 ng/mL and 229 ng/mL and 9900 ng/mL and 2080 ng/mL and 9200 ng/mL; Emax (maximum reduction in SPR on the logit scale) (patients with PSE; eyes closed): 0.963 and 2.54 and 1.79 and 2.47 and 6.99 and 0.58 and 0.05 and 30.9 and 49.5 (3×) and 0.487; mean (SD) Emax on the logit scale (patients with PSE; eyes closed): 16.3 (21.7); EC50 (C-7 concentration at 50% of the maximum reduction in SPR) (patients with PSE; eyes closure): 1690 ng/mL and 9900 ng/mL and 320 ng/mL and 788 ng/mL and 1270 ng/mL and 5 ng/mL and 10 ng/mL and 814 ng/mL and 1410 ng/mL and 3080 ng/mL and 83.3 ng/mL; Emax (maximum reduction in SPR on the logit scale) (patients with PSE; eyes closure): 2.38 and 41.5 and 0.571 and 49.5 (2×) and 3.25 and 2.39 and 0.05 (2×) and 9.23 and 1.31 and 7.67 and 0.495; mean (SD) Emax on the logit scale (patients with PSE; eyes closures): 12.9 (19.6); EC50 (C-7 concentration at 50% of the maximum reduction in SPR) (patients with PSE; eyes open): 1470 ng/mL and 9900 ng/mL and 629 ng/mL and 131 ng/mL and 5 ng/mL and 137 ng/mL and 1610 ng/mL and 1880 ng/mL; Emax (maximum reduction in SPR on the logit scale) (patients with PSE; eyes open): 1.14 and 40.8 and 1.03 and 49.5 (4×) and 14.5 and 1.29 and 0.05 (2×) and 2.66; mean (SD) Emax on the logit scale (patients with PSE; eyes open): 21.6 (23.5); In vivo orally active (mouse): Yes; effect of co-administration of C-7 on the AED PK [2]: did not seem to affect the AED PK; also recorded: did not seem to affect the PK of selected AEDs; also recorded: did not appear to affect the AED PK
